Test: Solubility of pesticides in solvents (stepwise 2% increments of pesticide powder)
Conditions: highest concentration still dissolved, no more than 2% lower than actual solubility; for Solubility in Comparative Solvent B: solvent: diethylene glycol monoethyl ether; for Solubility in Comparative Solvent A: solvent: dimethyl sulfoxide (DMSO); for Solubility in Comparative Solvent C: solvent: ethyl 3-ethoxypropionate
Method: The solubility of various pesticides in these solvents are evaluated.
Each pesticide powder is added by solvent in 2% stepwise increments to the final pesticide concentration. Each pesticide reaches a concentration where the pesticide powder is not dissolved by the solvent.

SMILES	Solubility in Comparative Solvent B [weight %]	Solubility in Comparative Solvent A [weight %]	Solubility in Comparative Solvent C [weight %]
CCCCC(C#N)(Cn1cncn1)c1ccc(Cl)cc1 (stereo not drawn) [Myclobutanil]	46.0	56.7	39.0
COC(=O)N(OC)c1ccccc1COc1ccn(-c2ccc(Cl)cc2)n1 [Pyraclostrobin]	33.0	40.0	47.0
CC(C)(C)C(O)(CCc1ccc(Cl)cc1)Cn1cncn1 (stereo not drawn) [Tebuconazole]	26.5	32.3	16.0
CC(C)(C)C(=O)C(Oc1ccc(Cl)cc1)n1cncn1 (stereo not drawn) [Triazolone]	35.7	43.3	32.0

— patent US11547112B2, “Solvents for agricultural applications and pesticide formulations” (Dow Global Technologies LLC, priority 2017, dated 2023)
